From patent US6143774A, “Imidazole n-benzyldioxol derivatives, method for preparing same, resulting intermediates, pharmaceutical compositions and use of said derivatives as endothelin antagonists” (Hoechst Marion Roussel, priority 1995, dated 2000)
pIC50: −log10 of the molar value.

Tests used:
endothelin (ET1) [1] = experiment: Protection against sudden death induced by IV injection of endothelin (ET1) in a female mouse; type: in vivo
Method: 5) Protection Against Sudden Death Induced by IV Injection of Endothelin (ET1) in a Female Mouse
A lethal dose of ET1 (10 nmole/kg IV) is injected into female mice. The solvent or the molecules to be studied are injected 10 minutes before (i.v. route) or 30 minutes before (oral route) the endothelin.
The protection is calculated in the form of ED50 (50% effective dose, or the dose capable of reducing the mortality by 50% relative to the control group).

endothelin (ET1) [2] = experiment: Test for antagonistic activity of endothelin in the demedullated rat; type: in vivo, male Sprague Dawley rats
Method: 3) Test for Antagonistic Activity of Endothelin in the Demedullated Rat
Male Sprague Dawley rats (250 to 350 g) are anaesthetized (sodium pentobarbital 60 mg/kg injected by intraperitoneal route). The animal is placed under assisted respiration and a bilateral section of the vagus nerves is carried out. The rat is then demedullated.
The average arterial pressure is recorded with a heparin catheter (PE50) introduced into the carotid of the animal, and connected via a pressure sensor and an amplifier to a recorder (Gould, Pressure Processor). A catheter is introduced into the pudendal vein in order to allow injection of the molecules to be studied. After a stabilization period (about 15 minutes), the product or the solvent is injected 10 minutes before a range of increasing doses of endothelin which are injected every 2 minutes (0.1-0.3-1-3-10 μg/kg).
The anatagonistic activity of the products is estimated by the percentage inhibition in the increase in pressure induced by the endothelin at doses of 3 and 10 μg/kg.

Endothelin B receptor = biological target: T1, Endothelin B receptor (Rattus norvegicus, UniProt P21451); experiment: Study of the affinity for the endothelin B receptor (125I endothelin displacement, rat cortex plus cerebellum membranes); type: binding; conditions: rat rear cortex plus cerebellum membranes, 25° C., 60 minutes
T1 construct: A membrane preparation is prepared from the rear cortex plus the cerebellum of a rat; from tissue; host or cells: rat rear cortex plus cerebellum (membrane preparation)
T1 sequence (P21451 27-442): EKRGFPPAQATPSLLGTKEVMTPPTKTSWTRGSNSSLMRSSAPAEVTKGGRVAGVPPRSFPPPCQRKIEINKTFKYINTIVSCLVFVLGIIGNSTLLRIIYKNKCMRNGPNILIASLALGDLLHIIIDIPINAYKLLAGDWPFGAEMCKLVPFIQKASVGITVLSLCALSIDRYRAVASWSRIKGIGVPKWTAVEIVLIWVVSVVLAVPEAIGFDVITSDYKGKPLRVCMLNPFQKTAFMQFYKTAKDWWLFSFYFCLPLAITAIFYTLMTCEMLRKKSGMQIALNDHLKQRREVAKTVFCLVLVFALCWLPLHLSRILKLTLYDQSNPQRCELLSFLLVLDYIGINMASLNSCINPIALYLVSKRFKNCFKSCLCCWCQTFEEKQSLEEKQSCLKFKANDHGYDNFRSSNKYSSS
Method: 2) Study of the Affinity for the Endothelin B Receptor
A membrane preparation is prepared from the rear cortex plus the cerebellum of a rat. The tissue is ground up in a POLYTRON in a 50 mM Tris buffer pH=7.4.
(§1) After 30 minutes at 25° C. (W.B.) the homogenate is centrifuged at 30,000 g for 15 minutes (2 centrifugations with intermediate take-up in the Tris buffer pH 7.4).
(§2) The pellets are suspended in an incubation buffer (25 mM Tris, 5 microg/ml pepstatin A, 3 microg/ml aprotinin, 0.1 mM PMSF, 3 mM EDTA, 1 mM EGTA pH 7.4).
(§3) 2 ml aliquoted fractions are distributed in hemolysis tubes and ^125 I endothelin (approx. 5,000 dpm/tube) and the product to be studied are added. (The product is first tested at 3×10^-5 M three times). When the tested product displaces more than 50% of the radioactivity specifically bound to the receptor, it is tested again according to a range of 7 concentrations in order to determine the concentration which inhibits by 50% the radioactivity specifically bound to the receptor. In this way the 50% inhibitory concentration is determined.
(§4) The non-specific bond is determined by the addition of endothelin at 10^-6 M (three times). After incubation at 25° C. for 60 minutes, replacing in a water bath at 0° C. for 5 minutes, filtration under reduced pressure and rinsing with Tris buffer pH 7.4, the radioactivity is counted in the presence of scintillating Triton.
(§5) The result is expressed directly as the 50% inhibitory concentration (IC50), that is to say as the concentration of product studied, expressed in nM, necessary to displace 50% of the specific radioactivity fixed to the receptor studied.

[3] = tested on: endothelin (ET), isolated thoracic aorta of a rat; experiment: Antagonistic activity of endothelin on the isolated aorta of a rat; design: species or system Wistar male rats
Method: The thoracic aorta is removed from Wistar male rats (approximately 350 g) (IFFA CREDO France) anaesthetized with pentobarbital (60 mg/kg IP) then exsanguinated. The aorta is rapidly put into a physiological solution at ambient temperature. A 1 to 2 mm ring without endothelium is put in an isolated organ bath containing 5 ml of the following physiological solution (composition in mM NaCl: 118.4; KCl: 4.7; MgSO4, 7H2 O: 1.2; CaCl2, 2H2 O: 2.5; KH2 PO4 : 1.2; NaHCO3 : 25; glucose: 10.1) the medium is maintained at 37° C. and oxygenated with a mixture of oxygen (95%) carbon dioxide (5%). The initial pressure imposed is 2 g, the rings are left at rest for 60 to 90 minutes. The reference contraction is caused by the addition of 2 successive concentrations of 3 μM of noradrenalin, left in contact for 15 minutes, followed by 3 washings, the second response serves as the reference contraction. After return to the base line, incubation is carried out for 15 minutes with a concentration of the product to be tested or the solvent then cumulative concentrations of endothelin are added every 5 minutes (concentrations of […]). The inhibition induced by the product is calculated as a % of the reduction relative to the reactivity of the control curves over 2 points: concentration of 10 and 30 nM of endothelin.

Endothelin A receptor = biological target: T2, Endothelin A receptor (Rattus norvegicus, UniProt P26684); experiment: Study of the affinity for the endothelin A receptor (125I endothelin displacement, rat heart ventricle membranes); type: binding; conditions: rat heart (ventricles) membranes, 25° C., 60 minutes
T2 construct: A membrane preparation is prepared from the heart (ventricles) of a rat; from tissue; host or cells: rat heart ventricles (membrane preparation)
T2 sequence (P26684 21-426): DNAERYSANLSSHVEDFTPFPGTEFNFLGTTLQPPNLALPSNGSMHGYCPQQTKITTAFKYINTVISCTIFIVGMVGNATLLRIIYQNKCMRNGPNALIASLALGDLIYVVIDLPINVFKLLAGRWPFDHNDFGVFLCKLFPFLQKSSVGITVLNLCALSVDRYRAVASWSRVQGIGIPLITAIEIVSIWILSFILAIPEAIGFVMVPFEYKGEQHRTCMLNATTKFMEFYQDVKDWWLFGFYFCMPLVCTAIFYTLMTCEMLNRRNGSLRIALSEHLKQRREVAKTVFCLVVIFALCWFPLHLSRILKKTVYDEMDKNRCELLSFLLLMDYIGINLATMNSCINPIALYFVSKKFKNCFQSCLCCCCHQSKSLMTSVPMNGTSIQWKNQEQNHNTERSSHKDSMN
Method: 1) Study of the Affinity for the Endothelin a Receptor
A membrane preparation is prepared from the heart (ventricles) of a rat. The tissue is ground up in a POLYTRON in a 50 mM Tris buffer pH=7.4.
as §1, §2
as §3, with “[…]” for “3×10^-5 M”
as §4, §5

[4] = 10 min, IV, 10 minutes before ET1 10 nmole/kg IV
[5] = 0.5 h, PO, 30 minutes before ET1 10 nmole/kg IV

SMILES	ED50 (endothelin (ET1) [1]; [4]) [mg/kg]	ED50 (endothelin (ET1) [1]; [5]) [mg/kg]	% inhibition of vasoconstriction (endothelin (ET1) [2]; dose 1.0 mg/kg, ET1 10 μg/kg) [%]	% inhibition of vasoconstriction (endothelin (ET1) [2]; dose 1.0 mg/kg, ET1 (3 μg/kg)) [%]	% inhibition of vasoconstriction (endothelin (ET1) [2]; dose 3.0 mg/kg, ET1 10 μg/kg) [%]	% inhibition of vasoconstriction (endothelin (ET1) [2]; dose 3.0 mg/kg, ET1 (3 μg/kg)) [%]	pIC50 (Endothelin B receptor)	% inhibition of contraction ([3]; antagonist 0.1 μM, ET 30 nM) [%]	% inhibition of contraction ([3]; antagonist 0.1 μM, ET 10 Nm) [%]	% inhibition of contraction ([3]; antagonist 1.0 μM, ET 30 nM) [%]	% inhibition of contraction ([3]; antagonist 1.0 μM, ET 10 Nm) [%]	pIC50 (Endothelin A receptor)	% inhibition of vasoconstriction (endothelin (ET1) [2]; dose 10.0 mg/kg, ET1 10 μg/kg) [%]	% inhibition of vasoconstriction (endothelin (ET1) [2]; dose 10.0 mg/kg, ET1 (3 μg/kg)) [%]	% inhibition of vasoconstriction (endothelin (ET1) [2]; dose 0.3 mg/kg, ET1 10 μg/kg) [%]	% inhibition of vasoconstriction (endothelin (ET1) [2]; dose 0.3 mg/kg, ET1 (3 μg/kg)) [%]
O=C(O)CCCCCSc1nc(C2OCCO2)n(Cc2cc3c(cc2Cl)OCO3)c1C(=O)O [Example 3]	5	24.1	53	52	71	64	–	–	–	–	–	–	–	–	–	–
CCCc1nc(SCCCCCC(=O)O)c(C(=O)O)n1Cc1cc2c(cc1Cl)OCO2 [Example 6]	3.9	–	33	42	37	49	6.53	99	96	98	96	8.92	–	–	–	–
COCc1nc(SCCCCCC(=O)O)c(C(=O)O)n1Cc1cc2c(cc1Cl)OCO2 [Example 4]	–	–	–	–	–	–	–	–	–	–	–	–	38	49	–	–
CCCc1nc(SC2CCC(CC(=O)O)CC2)c(C(=O)O)n1Cc1cc2c(cc1Cl)OCO2 (centres unmarked) [Example 2, 4-((4-(carboxymethyl)cyclohexyl)thio)-1-((6-chloro-1,3-benzodioxol-5-yl)methyl)-2-propyl-1H-imidazole-5-carboxylic acid]	0.8	1.1	65	60	77	63	6.71	61	71	100	94	8.96	–	–	39	56
CCCc1nc(SC2CCC(=CC(=O)O)CC2)c(C(=O)O)n1Cc1cc2c(cc1Cl)OCO2 (centres unmarked) [Example 10, 4-((4-(carboxymethylene)cyclohexyl)thio)-1-((6-chloro 1,3-benzodioxol-5-yl)methyl)-2-propyl-1H-imidazole-5-carboxylic acid]	3.3	3.2	39	59	61	58	6.68	–	–	–	–	8.92	–	–	–	–
CCCc1nc(SCCCCC(=O)O)c(C(=O)O)n1Cc1cc2c(cc1Cl)OCO2 [Example 8, 4-((4-carboxybutyl)thio)-1-((6-chloro-1,3-benzodioxol-5-yl)methyl)-2-(propyl)-1H-imidazole-5-carboxylic acid]	3.5	–	22	40	47	57	6.22	97	97	96	95	8.72	–	–	–	–
CCCCc1nc(SCCCCCC(=O)O)c(C(=O)O)n1Cc1cc2c(cc1Cl)OCO2 [Example 12, 2-butyl 4-((5-carboxypentyl)thio) 1-((6-chloro 1,3-benzodioxol-5-yl)methyl)-1H-imidazole-5-carboxylic acid]	–	–	–	–	–	–	–	65	88	98	98	8.96	35	30	–	–
